Residues, ends and D or L forms follow the SMILES beside them. *: point of attachment. Cbz = O=C(OCc1ccccc1)*
How the values were obtained:
[1] = test system: U2OS cells; experiment: FACS cell cycle / apoptosis analysis in U2OS cells, EZH2 RNA interference plus ADR or ETO; format: cell-based, human; conditions: control (non-knockdown) U2OS cells treated with the DNA damaging agent alone; FIG. 1A
Experimental: (§1) The human colorectal cancer HCT116 cells were kindly provided by Dr. Bert Vogelstein (John Hopkins University, MD). Other cell lines used in this study, including human osteosarcoma U2OS and Saos-2 and breast cancer MCF7 were obtained from the American Type Culture Collection (ATCC) and maintained in Dulbecco's modified Eagle medium (DMEM) supplemented with 10% fetal bovine serum (FBS) and antibiotics in a 37° C. humidified incubator containing 5% CO2. Human breast epithelial MCF10A cells were obtained from ATCC and maintained as recommended (Kadota et al 2010). Adramycin (ADR), Etopside (ETO), Nocodazole (Noco), proteasomal inhibitors MG132 and MG115 were purchased from Sigma-Aldrich.
Specific siRNA oligos targeting EZH2 (as described above) and FBXO32 (FBXO32 siRNA: 5_-GTCACATCCTTTCCTGGAA-3_) mRNAs were used. The non-targeting control was purchased from Dharmacon (Lafayett, Colo.). For EZH2 knockdown, a sequential twice knockdown is performed to secure efficient gene silencing. […]
Cells were harvested and fixed in 70% ethanol. […] The stained cells were analyzed for DNA content by fluorescence-activated cell sorting (FACS) in a FACS Calibur (Becton Dickinson Instrument, San Jose, Calif.). Cell cycle fractions were quantified using the CellQuest software (Becton Dickinson). […]

[2] = test system: EZH2 complex; conditions: cancer cells; previously shown (Tan et al., 2007); cited from earlier work
[3] = test system: p21 mRNA; experiment: p21 mRNA level (Taqman quantitative real-time PCR); format: cell-based, human; conditions: DZNep with ADR or ETO; data not shown
Experimental: Total RNA was isolated using Trizol (Invitrogen) and purified with the RNeasy Mini Kit (Qiagen). Reverse transcription was performed using an RNA Amplification kit (Ambion). Quantitative real-time PCR was assessed using the PRISM 7900 Sequence Detection System (Applied Biosystems) with specific probes from Applied Biosystem. Samples were normalized to the levels of GAPDH mRNA.

[4] = test system: FBXO32, p21, p-Chk1; experiment: Immunoblot analysis of FBXO32, p21 and Chk1 phosphorylation after DZNep with ADR or ETO; format: cell-based, human
Experimental: as §1
Protein extracts were prepared by lysis in RIPA buffer containing (50 mM Tris-HCl, pH 7.4, 150 mM NaCl, 1% Nonidet P-40, 0.5% sodium deoxycholate, 0.1% SDS, 1 mM EDTA, 50 mM NaF, 0.1 mM Na3VO4) and protease inhibitor cocktail (Roch). Lysates were resolved by SDS-PAGE, transferred onto a immobilon membrane (Millipore) and probed with indicated antibodies. For co-immunoprecipitation experiments, cells were lysed and incubated with the indicated antidodies and protein G-seperose beads overnight at 4° C. Beads were washed four times with lysis buffer. The bound proteins were dissolved in SDS sample buffer, resolved by SDS-PAGE, and immunoblotted with the indicated antibodies. Where indicated, proteosome inhibitors MG-132 (5 μM) or MG-115 (20 μM) were used to treat cells for 8 h before protein extraction. Antibodies used in this study include: anti-EZH2 (Cell Signaling), anti-p21 (Santa Cruz), anti-FBXO32 (Santa Cruz), anti-p53 (Santa Cruz), anti-MDM2 (Santa Cruz), anti-phospho-Chk1 (Cell signaling), anti-Chk1 (Santa Cruz), anti-phospho-Chk2 (Cell signaling), anti-Chk2 (Upstate), anti-H3 (Cell signaling), anti-PARP (Cell Signaling), anti-H3K27me3 (Upstate), anti-actin mouse monoclonal (Sigma).

[5] = test system: non-transformed MCF-10A, IMR90 and RWEP cells; experiment: ADR or ETO-induced apoptosis in non-transformed cells with DZNep; format: cell-based, human; conditions: data not shown
Experimental: as §1
(§2) Cells were harvested and fixed in 70% ethanol. Fixed cells were stained with propidium iodide (50 μg/mL) after treatment with RNase (100 μg/mL). The stained cells were analyzed for DNA content by fluorescence-activated cell sorting (FACS) in a FACS Calibur (Becton Dickinson Instrument, San Jose, Calif.). Cell cycle fractions were quantified using the CellQuest software (Becton Dickinson). For synchronization experiment, HCT116 cells expressing FBXO32 or empty vector were treated with Nocodazole (400 ng/ml) for 16 h, mitotically arrested cells were treated with ADR and then subject to FACS for cell cycle analysis.

[6] = test system: U2OS, HCT116, Saos-2 and p53-deficient HCT116 cells; experiment: FACS cell cycle / apoptosis analysis, DZNep combined with ADR or ETO in cancer cells; format: cell-based, human
Experimental: as §1, §2

## COc1cccc2c1C(=O)c1c(O)c3c(c(O)c1C2=O)C[C@@](O)(C(=O)CO)C[C@@H]3O[C@H]1C[C@H](N)[C@H](O)[C@H](C)O1 [Adriamycin]
[1]
  cell cycle arrest / apoptosis in control cells: mainly cell cycle arrested with little apoptosis

## Nc1nccc2c1ncn2[C@@H]1C=C(CO)[C@@H](O)[C@H]1O [DZNep, 3-Deazaneplanocin A]
[2]
  depletion of EZH2 complex: can deplete EZH2 complex
[3]
  p21 mRNA as cause of p21 protein downregulation: not due to a decrease in p21 mRNA
[4]; DZNep with ADR or ETO, U2OS, HCT116, Saos-2, p53-deficient HCT116, FIGS. 4B, 4D
  p21 and/or p-Chk1 induction by ADR or ETO: largely abolished
[4]; EZH2 depletion by DZNep, U2OS, HCT116, Saos-2, p53-deficient HCT116, FIGS. 4B, 4D
  FBXO32 induction: accompanied with FBXO32 induction
[4]; combination of DZNep with ADR or ETO, HCT116 and U2OS cells, FIG. 4B
  ADR or ETO-induced p21 accumulation and Chk1 phosphorylation: abolishes
[4]; combination of DZNep with ADR or ETO, p53-deficient HCT116 and Saos-2 cells, FIG. 4D
  DNA damage induced p21 accumulation and Chk1 phosphorylation, p53-deficient cells: abolishes
[5]
  promotion of ADR or ETO-induced apoptosis in non-transformed cells: did not promote
[6]; HCT116 cells with FBXO32 knockdown, FIGS. 4E, 4F
  effect of DZNep on DNA damage-induced apoptosis, p21 and p-Chk1 when FBXO32 is knocked down: largely abolished when FBXO32 was knockdown
[6]; combination of DZNep with ADR or ETO, HCT116 or U2OS cells, FIG. 4A
  checkpoints activation (FACS): abrogates checkpoints activation
[6]; combination of DZNep with ADR or ETO, p53-deficient HCT116 or Saos-2 cells, FIG. 4C
  checkpoints (FACS), p53-deficient cells: abrogates checkpoints
[6]; pretreatment with DZNep, then ADR or ETO, p53-proficient U2OS and HCT116, p53-deficient Saos-2 and HCT116 cells, FIGS. 4A, 4C
  effect on ADR or ETO-induced cell cycle arrest / apoptosis: converted ADR or ETO-induced cell cycle arrest to marked apoptosis

## COc1cc([C@@H]2c3cc4c(cc3[C@@H](O[C@@H]3O[C@@H]5CO[C@@H](C)O[C@H]5[C@H](O)[C@H]3O)[C@H]3COC(=O)[C@H]23)OCO4)cc(OC)c1O [Etoposide]
[1]
  cell cycle arrest / apoptosis in control cells: mainly cell cycle arrested with little apoptosis

## CC(C)C[C@@H](C=O)NC(=O)[C@H](CC(C)C)NC(=O)[C@H](CC(C)C)NC(=O)OCc1ccccc1 [MG132] (Cbz-Leu-Leu-Leu-aldehyde)
[4]; MG132 added, data not shown
  p21 protein downregulation by DZNep with ADR or ETO, effect of proteasome inhibitor: prevented

— US20130210024A1, “COMBINATION TREATMENT OF CANCER” (Agency for Science, Technology and Research, priority 2010, published 2013)
